Reference: patent US20190071670A1, “Methods Of Treatment For Alpha-1 Antitrypsin Deficiency” (Arrowhead Pharmaceuticals, Inc., priority 2016, published 2019)

Test system: hAAT mRNA
Assay: Liver hAAT mRNA levels in PiZ mice (RT-qPCR)
Format: in vivo, human (expressed in PiZ mice)
Details: for hAAT mRNA in liver reduced: 6 month old female PiZ mice, single IV 8 mg/kg + 8 mg/kg MLP delivery polymer; for Average relative mRNA level (hAAT) / hAAT mRNA level: PiZ mice liver; for Average relative mRNA level (hAAT): one injection 8 mg/kg + 8 mg/kg MLP delivery polymer; for hAAT mRNA level: single IV 6 mg/kg with 6 mg/kg MLP delivery polymer, relative to mouse β-actin mRNA
Description: Compositions comprising double-stranded AAT expression-inhibiting oligomeric compounds were administered to PiZ mice. PiZ mice harbor the human PiZ AAT mutant allele and model human AATD (Carlson et al. Journal of Clinical Investigation 1989). […] Liver hAAT mRNA production was measured at days 3 and 10. Reduced mRNA levels correlated with decreased serum hAAT protein levels, except that mRNA reduction preceded protein reduction by a few days. The level of liver hAAT mRNA production was measured at day 3 and day 10 following a single dose of AAT RNAi agent with MLP delivery polymer in PiZ mice. A sustained decrease in liver hAAT mRNA levels was observed that correlated with the decrease observed in serum hAAT protein levels.
Human AAT protein levels in serum were monitored for 29 days. At the indicated times, blood samples were collected and assayed for hAAT by ELISA. Day 1 samples were collected prior to trigger administration. For mRNA analysis, 3-4 mice were euthanized at each of days 3, 8, 15, 22, and 29. For euthanized mice, cardiac stick were performed for serum isolation for AAT ELISA (200 μl serum). Half of the left lateral liver lobe was collected and snap-freeze in liquid nitrogen for RNA isolation. The remainder of the left lobes were embedded into paraffin blocks for PAS-D staining with hematoxylin as counter-stain. Serum hAAT levels in mice given AAT Duplex Pair SEQ ID NO: 5/6 were 95% reduced on day 8 and remained reduced to day 29, at which time they were 79% reduced. Mice given AAT Duplex Pair SEQ ID NO: 5/6 were euthanized at either day 3, 8, 15, 22 or 29. Mice given saline or Luciferase siRNA control (SEQ ID 7/8) were euthanized on day 29. Levels of hAAT mRNA in the livers were measured by RT-qPCR. The hAAT mRNA in mice given AAT Duplex Pair SEQ ID NO: 5/6 was reduced by 97% on day 3 and remained reduced on day 29, at which time levels were 56% reduced. The size of the globules and the area of the liver covered by globules was digitally quantitated from liver specimens stained with PAS-D. Duplex Pair SEQ ID NO: 5/6 treated mice had 70% smaller globules at day 15 and 62% smaller globules at day 29. The area of the liver covered with globules was 83% reduced on day 15 and 72% reduced on day 29 (FIG. 5).

Duplex Pair SEQ ID NO: 5/6: double-stranded AAT RNAi agent: modified antisense strand SEQ ID NO: 5 annealed to Chol-TEG sense strand SEQ ID NO: 6 (antisense TGGAACUUGGUGAUGAUAUTT; sense UAUAUAUCAUCACCAAGUUCCAT; Chol-TEG on sense strand; chemical modifications; antisense strand of dsRNA; modified_base 7 /mod_base = “2′-3′ seco corresponding nucleotide”; modified_base 2,4,6,8,10,12,14,16,18 /mod_base = “2′-deoxy-2′-fluoro corresponding nucleoside”; modified_base 3,5,9,11,13,15,17,19 /mod_base = “2′-O-methyl corresponding nucleoside”; modified_base 21 /mod_base = “5′-phosphorothioate corresponding nucleotide”; sense strand of dsRNA; modified_base 2 /mod_base = “2′-hydroxy corresponding nucleoside”; modified_base 4,6,8,10,12,14,16,18,20,22 /mod_base = “2′-deoxy-2′-fluoro corresponding nucleoside”; …)
hAAT mRNA in liver reduced (day 3): 97% | hAAT mRNA in liver reduced (day 29): 56% | Average relative mRNA level (hAAT) (Day 3): 0.030 | Average relative mRNA level (hAAT) (Day 8): 0.032 | Average relative mRNA level (hAAT) (Day 15): 0.158 | Average relative mRNA level (hAAT) (Day 22): 0.221 | Average relative mRNA level (hAAT) (Day 29): 0.439 | hAAT mRNA level (day 3): 0.025 ± 0.02 | hAAT mRNA level (day 10): 0.055 ± 0.02
